Measurements from US20080009418A1, “Selective Inhibitors” (Alchemia LTD., priority 2004, published 2008).

What was measured:
Human neurokinin (NK1) = biological target: T1, Human neurokinin (NK1) (Homo sapiens, UniProt P25103); assay: Radioligand binding, human neurokinin NK1 membranes, filtration, [125I]-Substance P; details: compound at 10 μM, [125I]-Substance P
T1 construct: purchased Perkin Elmer Biosignal
How it was run: (§1)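 Filtration binding on cloned human receptor membranes (1 Unit/well), [125I]-Substance P for NK1 and [3H]-Diprenorphine for KOP, 1 h at room temperature. Filters PEI-presoaked, washed with cold 50 mM Tris-HCl pH 7.4, counted by scintillation; percent inhibition calculated, reference ligand defining non-specific binding.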

Human μ-opioid (MOP) = biological target: T2, Human μ-opioid (MOP) (Homo sapiens, UniProt P35372); assay: Radioligand binding, human μ-opioid (MOP) membranes, FlashPlate, [3H]-Naloxone; details: compound at 10 μM, [3H]-Naloxone
T2 construct: purchased Perkin Elmer Biosignal
T2 sequence (P35372 whole entry): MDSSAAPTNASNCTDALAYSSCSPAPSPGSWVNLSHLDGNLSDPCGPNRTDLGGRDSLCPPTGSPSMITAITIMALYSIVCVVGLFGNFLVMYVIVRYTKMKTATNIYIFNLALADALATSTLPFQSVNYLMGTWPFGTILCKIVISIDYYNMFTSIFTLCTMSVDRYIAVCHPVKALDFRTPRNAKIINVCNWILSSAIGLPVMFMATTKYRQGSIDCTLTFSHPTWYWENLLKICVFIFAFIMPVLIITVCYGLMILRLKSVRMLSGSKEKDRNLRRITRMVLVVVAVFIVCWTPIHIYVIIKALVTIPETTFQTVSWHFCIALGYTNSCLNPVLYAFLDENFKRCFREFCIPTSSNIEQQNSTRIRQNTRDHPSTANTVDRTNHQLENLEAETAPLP
How it was run: (§2)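 Cloned human receptor membranes were coated onto FlashPlate wells and incubated with radioligand and compound (added from a 0.5 mM DMSO daughter plate) for 1 hour at room temperature in the dark. Scintillation counting gave percent inhibition, with DMSO defining total and reference ligand defining non-specific binding.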

Human Melanocortin (MC3) = biological target: T3, Human Melanocortin (MC3) (Homo sapiens, UniProt P41968); assay: Radioligand binding, human melanocortin MC3 membranes, FlashPlate, [125I]-NDP-αMSH; details: compound at 10 μM, [125I]-NDP-αMSH
T3 construct: purchased Perkin Elmer Biosignal
T3 sequence (P41968 whole entry): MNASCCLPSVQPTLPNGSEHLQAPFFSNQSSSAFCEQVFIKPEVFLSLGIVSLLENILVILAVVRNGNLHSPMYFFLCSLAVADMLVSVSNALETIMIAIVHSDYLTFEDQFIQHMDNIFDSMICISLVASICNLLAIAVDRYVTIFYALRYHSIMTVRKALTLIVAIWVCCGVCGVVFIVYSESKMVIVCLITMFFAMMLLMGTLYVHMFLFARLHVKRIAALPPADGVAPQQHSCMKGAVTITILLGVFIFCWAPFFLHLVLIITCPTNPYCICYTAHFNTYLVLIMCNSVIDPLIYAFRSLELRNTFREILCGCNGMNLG
How it was run: as §2

Human opioid (ORL1) = biological target: T4, Human opioid (ORL1) (Homo sapiens, UniProt P41146); assay: Radioligand binding, human opioid ORL1 membranes, FlashPlate, [125I]-Nociceptin; details: compound at 10 μM, [125I]-Nociceptin
T4 construct: purchased Perkin Elmer Biosignal
T4 sequence (P41146 whole entry): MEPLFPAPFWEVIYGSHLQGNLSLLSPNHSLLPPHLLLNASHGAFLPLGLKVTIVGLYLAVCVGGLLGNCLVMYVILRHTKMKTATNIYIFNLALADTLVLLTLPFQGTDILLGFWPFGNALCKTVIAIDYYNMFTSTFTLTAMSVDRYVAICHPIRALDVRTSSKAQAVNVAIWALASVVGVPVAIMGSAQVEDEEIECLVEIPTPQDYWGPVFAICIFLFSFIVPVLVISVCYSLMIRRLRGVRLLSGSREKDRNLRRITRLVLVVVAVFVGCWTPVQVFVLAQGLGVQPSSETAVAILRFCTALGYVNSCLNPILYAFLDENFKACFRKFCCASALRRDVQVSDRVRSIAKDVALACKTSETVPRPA
How it was run: as §2

Human melanocortin (MC5) = biological target: T5, Human melanocortin (MC5) (Homo sapiens, UniProt P33032); assay: Radioligand binding, human melanocortin MC5 membranes, FlashPlate, [125I]-NDP-αMSH; details: compound at 10 μM, [125I]-NDP-αMSH
T5 construct: purchased Perkin Elmer Biosignal
T5 sequence (P33032 whole entry): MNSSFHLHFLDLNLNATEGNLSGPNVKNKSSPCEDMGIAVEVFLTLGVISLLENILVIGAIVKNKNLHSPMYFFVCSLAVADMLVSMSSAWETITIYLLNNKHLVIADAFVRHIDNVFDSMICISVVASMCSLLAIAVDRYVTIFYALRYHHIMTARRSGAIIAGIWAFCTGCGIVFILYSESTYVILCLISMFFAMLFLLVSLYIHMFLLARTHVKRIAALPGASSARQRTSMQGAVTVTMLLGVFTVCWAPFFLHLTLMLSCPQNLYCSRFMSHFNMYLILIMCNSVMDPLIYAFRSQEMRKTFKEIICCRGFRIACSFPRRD
How it was run: as §2

Mouse urotensin (mUR2) = biological target: T6, Mouse urotensin (mUR2) (Mus musculus, UniProt Q8VIH9); assay: Radioligand binding, mouse urotensin mUR2 membranes, FlashPlate, [125I]-Urotensin II; details: compound at 10 μM, [125I]-Urotensin II
T6 construct: purchased Perkin Elmer Biosignal
T6 sequence (Q8VIH9 1-385): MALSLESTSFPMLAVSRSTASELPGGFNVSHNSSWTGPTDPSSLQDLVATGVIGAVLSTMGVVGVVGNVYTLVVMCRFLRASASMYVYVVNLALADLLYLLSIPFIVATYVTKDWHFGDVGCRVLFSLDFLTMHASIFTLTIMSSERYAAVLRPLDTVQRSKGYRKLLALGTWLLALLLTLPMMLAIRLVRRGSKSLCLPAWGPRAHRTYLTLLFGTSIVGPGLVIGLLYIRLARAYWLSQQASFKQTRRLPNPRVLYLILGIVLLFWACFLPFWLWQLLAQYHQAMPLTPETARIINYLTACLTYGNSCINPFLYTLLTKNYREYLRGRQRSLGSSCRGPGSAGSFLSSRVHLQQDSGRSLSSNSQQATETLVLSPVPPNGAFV
How it was run: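 Cloned mouse urotensin (mUR2) receptor membranes from Perkin Elmer Biosignal were immobilized in FlashPlate microplates using a proprietary coating. Each well got 19.5 μl buffer, then 0.5 μl of DMSO, reference ligand, or compound. Adding 5 μl of [125I]-Urotensin II, diluted to 5× final concentration in binding buffer, started binding. Plates were sealed with TopSeal-A and incubated 1 hour at room temperature in the dark. Wells were counted for 30 seconds each on a TopCount after a 60-second delay, and percentage inhibition was calculated.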

Human δ-opioid (DOP) = biological target: T7, Human δ-opioid (DOP) (Homo sapiens, UniProt P41143); assay: Radioligand binding, human δ-opioid (DOP) membranes, FlashPlate, [3H]-Bremazocine; details: compound at 10 μM, [3H]-Bremazocine
T7 construct: purchased Perkin Elmer Biosignal
T7 sequence (P41143 whole entry): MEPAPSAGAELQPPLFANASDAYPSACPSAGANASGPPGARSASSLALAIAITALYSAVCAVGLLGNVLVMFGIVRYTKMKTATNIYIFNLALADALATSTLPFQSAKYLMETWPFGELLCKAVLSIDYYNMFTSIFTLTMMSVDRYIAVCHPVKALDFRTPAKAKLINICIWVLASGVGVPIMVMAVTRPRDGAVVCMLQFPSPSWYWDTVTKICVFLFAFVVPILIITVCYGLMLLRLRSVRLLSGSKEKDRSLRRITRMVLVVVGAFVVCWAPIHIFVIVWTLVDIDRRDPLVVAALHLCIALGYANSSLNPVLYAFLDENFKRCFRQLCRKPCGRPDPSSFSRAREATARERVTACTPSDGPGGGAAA
How it was run: as §2

[1] = biological target: T8, Human melanin-concentrating hormone (MCH1) (Homo sapiens, UniProt Q99705); assay: Radioligand binding, human melanin-concentrating hormone MCH1 membranes, FlashPlate, [125I]-S36057; details: compound at 10 μM; for A6: inhibition of radioligand binding, human melanin-concentrating hormone (MCH1): [125I]-S36057
T8 construct: purchased Perkin Elmer Biosignal
T8 sequence (Q99705 whole entry): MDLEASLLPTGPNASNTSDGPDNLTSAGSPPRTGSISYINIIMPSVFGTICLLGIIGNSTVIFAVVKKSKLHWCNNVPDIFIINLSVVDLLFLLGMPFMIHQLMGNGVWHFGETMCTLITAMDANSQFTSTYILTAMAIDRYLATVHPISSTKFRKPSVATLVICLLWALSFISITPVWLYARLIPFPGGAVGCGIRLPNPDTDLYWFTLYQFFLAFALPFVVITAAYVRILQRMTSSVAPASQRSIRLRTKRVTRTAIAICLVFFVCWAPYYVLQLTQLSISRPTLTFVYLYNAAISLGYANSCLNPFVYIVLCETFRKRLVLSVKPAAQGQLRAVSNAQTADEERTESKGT
How it was run: as §2

[2] = biological target: T9, Human neuropeptide Y (NPY-Y1) (Homo sapiens, UniProt P25929); assay: Radioligand binding, human neuropeptide Y NPY-Y1 membranes, FlashPlate, [125I]-PYY; details: compound at 10 μM, [125I]-PYY
T9 construct: purchased Perkin Elmer Biosignal
T9 sequence (P25929 1-384): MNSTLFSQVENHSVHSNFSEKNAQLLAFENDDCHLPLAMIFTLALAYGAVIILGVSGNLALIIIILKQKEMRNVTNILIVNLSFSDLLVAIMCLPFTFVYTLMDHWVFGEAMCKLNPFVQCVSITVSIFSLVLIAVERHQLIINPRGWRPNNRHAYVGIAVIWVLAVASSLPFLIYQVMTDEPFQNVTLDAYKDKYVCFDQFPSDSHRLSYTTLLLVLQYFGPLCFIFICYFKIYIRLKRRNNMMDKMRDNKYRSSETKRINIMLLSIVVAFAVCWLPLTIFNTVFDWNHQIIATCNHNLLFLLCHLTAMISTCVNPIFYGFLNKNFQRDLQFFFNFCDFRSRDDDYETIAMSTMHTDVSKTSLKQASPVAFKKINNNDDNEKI
How it was run: as §2

Human κ-Opioid (KOP) = biological target: T10, Human κ-Opioid (KOP) (Homo sapiens, UniProt P41145); assay: Radioligand binding, human κ-opioid (KOP) membranes, filtration, [3H]-Diprenorphine; details: compound at 10 μM, [3H]-Diprenorphine
T10 construct: purchased Perkin Elmer Biosignal
T10 sequence (P41145 whole entry): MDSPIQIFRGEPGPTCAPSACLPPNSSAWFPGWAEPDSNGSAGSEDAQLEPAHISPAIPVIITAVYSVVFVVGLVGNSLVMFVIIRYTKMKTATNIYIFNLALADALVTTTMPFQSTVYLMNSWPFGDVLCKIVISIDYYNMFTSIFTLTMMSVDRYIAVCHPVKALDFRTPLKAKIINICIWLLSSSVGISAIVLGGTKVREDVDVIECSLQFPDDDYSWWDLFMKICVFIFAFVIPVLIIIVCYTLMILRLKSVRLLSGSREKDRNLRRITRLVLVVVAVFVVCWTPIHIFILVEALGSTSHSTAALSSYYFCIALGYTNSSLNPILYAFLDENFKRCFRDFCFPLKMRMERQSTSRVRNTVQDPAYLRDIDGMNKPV
How it was run: as §1

Human Melanocortin (MC4) = biological target: T11, Human Melanocortin (MC4) (Homo sapiens, UniProt P32245); assay: Radioligand binding, human melanocortin MC4 membranes, FlashPlate, [125I]-NDP-αMSH; details: compound at 10 μM, [125I]-NDP-αMSH
T11 construct: purchased Perkin Elmer Biosignal
T11 sequence (P32245 whole entry): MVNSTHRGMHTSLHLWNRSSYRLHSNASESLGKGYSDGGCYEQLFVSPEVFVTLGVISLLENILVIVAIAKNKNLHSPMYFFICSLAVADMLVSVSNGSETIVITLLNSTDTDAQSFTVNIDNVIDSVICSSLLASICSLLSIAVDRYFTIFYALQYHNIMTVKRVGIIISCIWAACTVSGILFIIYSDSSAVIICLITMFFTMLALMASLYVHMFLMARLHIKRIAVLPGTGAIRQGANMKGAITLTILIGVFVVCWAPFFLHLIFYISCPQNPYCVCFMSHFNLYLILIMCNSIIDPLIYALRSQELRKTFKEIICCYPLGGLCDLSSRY
How it was run: as §2

T1 sequence (P25103 whole entry): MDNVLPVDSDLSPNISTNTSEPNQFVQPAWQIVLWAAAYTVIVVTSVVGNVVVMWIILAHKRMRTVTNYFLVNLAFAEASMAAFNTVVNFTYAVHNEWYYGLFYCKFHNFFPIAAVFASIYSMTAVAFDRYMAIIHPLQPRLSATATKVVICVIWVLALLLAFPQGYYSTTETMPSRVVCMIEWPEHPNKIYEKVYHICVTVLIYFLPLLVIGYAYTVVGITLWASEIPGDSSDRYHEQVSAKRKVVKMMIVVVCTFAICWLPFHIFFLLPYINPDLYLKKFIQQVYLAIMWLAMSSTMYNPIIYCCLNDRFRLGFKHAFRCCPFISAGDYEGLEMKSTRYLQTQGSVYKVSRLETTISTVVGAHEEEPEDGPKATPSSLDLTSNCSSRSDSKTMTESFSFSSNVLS

Compound	A8: inhibition of radioligand binding, human neurokinin (NK1) (Human neurokinin (NK1))	A7: inhibition of radioligand binding, human μ-opioid (MOP) (Human μ-opioid (MOP))	A3: inhibition of radioligand binding, human melanocortin (MC3) (Human Melanocortin (MC3))	A10: inhibition of radioligand binding, human opioid (ORL1) (Human opioid (ORL1))	A5: inhibition of radioligand binding, human melanocortin (MC5) (Human melanocortin (MC5))	A11: inhibition of radioligand binding, mouse urotensin (mUR2) (Mouse urotensin (mUR2))	A1: inhibition of radioligand binding, human δ-opioid (DOP) (Human δ-opioid (DOP))	A6: inhibition of radioligand binding, human melanin-concentrating hormone (MCH1) [1]	A9: inhibition of radioligand binding, human neuropeptide Y (NPY-Y1) [2]	A2: inhibition of radioligand binding, human κ-opioid (KOP) (Human κ-Opioid (KOP))	A4: inhibition of radioligand binding, human melanocortin (MC4) (Human Melanocortin (MC4))	other results
NCCC(=O)N[C@H]1C(OCc2ccc3ccccc3c2)O[C@H](COCc2ccccc2)[C@@H](O)[C@@H]1OCc1ccc2ccccc2c1 (stereo partly shown) [compound 445]	–	–	–	–	–	–	–	–	–	–	–	A8: inhibition of radioligand binding (Human neurokinin (NK1); human NK1 membranes): + (“+” indicates greater than 50% inhibition at 10 μM); A7: inhibition of radioligand binding (Human μ-opioid (MOP); human MOP membranes, 10 µM): + (“+” indicates greater than 50% inhibition at 10 μM); A3: inhibition of radioligand binding (Human Melanocortin (MC3); human MC3 membranes, 10 µM): + (“+” indicates greater than 50% inhibition at 10 μM); A10: inhibition of radioligand binding (Human opioid (ORL1); human ORL1 membranes, 10 µM): + (“+” indicates greater than 50% inhibition at 10 μM); A5: inhibition of radioligand binding (Human melanocortin (MC5); human MC5 membranes, 10 µM): + (“+” indicates greater than 50% inhibition at 10 μM); A11: inhibition of radioligand binding (Mouse urotensin (mUR2); mouse mUR2 membranes): − (“−” indicates less than 50% inhibition at 10 μM); A1: inhibition of radioligand binding (Human δ-opioid (DOP); human DOP membranes): − (“−” indicates less than 50% inhibition at 10 μM); A6: inhibition of radioligand binding ([1]; [125I]-S36057, human MCH1 membranes, 10 µM): + (“+” indicates greater than 50% inhibition at 10 μM); A9: inhibition of radioligand binding ([2]; human NPY-Y1 membranes): − (“−” indicates less than 50% inhibition at 10 μM); A2: inhibition of radioligand binding (Human κ-Opioid (KOP); human KOP membranes, 10 µM): + (“+” indicates greater than 50% inhibition at 10 μM); A4: inhibition of radioligand binding (Human Melanocortin (MC4); human MC4 membranes, 10 µM): + (“+” indicates greater than 50% inhibition at 10 μM)
NCCC(=O)NC1C(OCc2ccccc2)OC(COCc2ccc3ccccc3c2)C(O)C1OCc1ccccc1 (stereo not shown) [compound 369]	+ (“+” indicates greater than 50% inhibition at 10 μM)	− (“−” indicates less than 50% inhibition at 10 μM)	− (“−” indicates less than 50% inhibition at 10 μM)	− (“−” indicates less than 50% inhibition at 10 μM)	− (“−” indicates less than 50% inhibition at 10 μM)	− (“−” indicates less than 50% inhibition at 10 μM)	− (“−” indicates less than 50% inhibition at 10 μM)	− (“−” indicates less than 50% inhibition at 10 μM)	− (“−” indicates less than 50% inhibition at 10 μM)	− (“−” indicates less than 50% inhibition at 10 μM)	+ (“+” indicates greater than 50% inhibition at 10 μM)	–
CSC1OC(COCc2ccc3ccccc3c2)C(O)C(OCc2ccc3ccccc3c2)C1NC(=O)CCN (stereo not shown) [compound 318]	+ (“+” indicates greater than 50% inhibition at 10 μM)	− (“−” indicates less than 50% inhibition at 10 μM)	− (“−” indicates less than 50% inhibition at 10 μM)	− (“−” indicates less than 50% inhibition at 10 μM)	+ (“+” indicates greater than 50% inhibition at 10 μM)	− (“−” indicates less than 50% inhibition at 10 μM)	− (“−” indicates less than 50% inhibition at 10 μM)	− (“−” indicates less than 50% inhibition at 10 μM)	− (“−” indicates less than 50% inhibition at 10 μM)	− (“−” indicates less than 50% inhibition at 10 μM)	− (“−” indicates less than 50% inhibition at 10 μM)	–
COCC1OC(OCCc2ccccc2)C(NC(=O)CCN)C(OCc2ccccc2)C1O (stereo not shown) [compound 216]	–	–	–	–	–	–	–	–	–	–	–	A8: inhibition of radioligand binding (Human neurokinin (NK1); filtration): + (“+” indicates greater than 50% inhibition at 10 μM); A7: inhibition of radioligand binding (Human μ-opioid (MOP); FlashPlate): − (“−” indicates less than 50% inhibition at 10 μM); A3: inhibition of radioligand binding (Human Melanocortin (MC3); FlashPlate): − (“−” indicates less than 50% inhibition at 10 μM); A10: inhibition of radioligand binding (Human opioid (ORL1); FlashPlate): − (“−” indicates less than 50% inhibition at 10 μM); A5: inhibition of radioligand binding (Human melanocortin (MC5); FlashPlate): − (“−” indicates less than 50% inhibition at 10 μM); A11: inhibition of radioligand binding (Mouse urotensin (mUR2); FlashPlate): − (“−” indicates less than 50% inhibition at 10 μM); A1: inhibition of radioligand binding (Human δ-opioid (DOP); FlashPlate): − (“−” indicates less than 50% inhibition at 10 μM); A6: inhibition of radioligand binding ([1]; [125I]-S36057, FlashPlate): − (“−” indicates less than 50% inhibition at 10 μM); A9: inhibition of radioligand binding ([2]; FlashPlate): − (“−” indicates less than 50% inhibition at 10 μM); A2: inhibition of radioligand binding (Human κ-Opioid (KOP); filtration): − (“−” indicates less than 50% inhibition at 10 μM); A4: inhibition of radioligand binding (Human Melanocortin (MC4); FlashPlate): − (“−” indicates less than 50% inhibition at 10 μM)
CSC1OC(COCc2cccc(N)c2)C(O)C(OCc2ccc(Cl)cc2)C1NC(=O)Cc1ccccc1 (stereo not shown) [compound 328]	+ (“+” indicates greater than 50% inhibition at 10 μM)	− (“−” indicates less than 50% inhibition at 10 μM)	− (“−” indicates less than 50% inhibition at 10 μM)	− (“−” indicates less than 50% inhibition at 10 μM)	− (“−” indicates less than 50% inhibition at 10 μM)	− (“−” indicates less than 50% inhibition at 10 μM)	− (“−” indicates less than 50% inhibition at 10 μM)	− (“−” indicates less than 50% inhibition at 10 μM)	− (“−” indicates less than 50% inhibition at 10 μM)	− (“−” indicates less than 50% inhibition at 10 μM)	− (“−” indicates less than 50% inhibition at 10 μM)	–
